Laboratory results taken from patent US4226857A, “Synthetic peptides having pituitary growth hormone releasing activity” (priority 1979, dated 1980).
Square brackets hold non-standard residues; d marks the D form. Peptide text beside a SMILES is read from it.

System: pituitaries
Assay: In vitro growth hormone release study (rat pituitary incubation, GH radioimmunoassay)
Type: cell-based
Settings: pituitaries of 20 day old female rats, Δ of GH levels between I3, I4 and P2, ± SEM
Method: Female rats of the CD-1 strain were housed in a constant temperature room at 24° C. with 14 hours light and 10 hours darkness. The rats were fed Purina brand rat chow ab libitum.
All studies were started between 0800 and 1000 hours.
Pituitaries were removed from 20 day old female rats. Two pituitaries were incubated at 36° C. in 1 ml of lactated Ringer's solution in 10 ml polytetrafluoroethylene beakers in a Dubnoff Shaker (90 cycles/min.). The pituitaries were incubated a total of 4 hours (P1, P2, I3, and I4). After two successive one hour preincubation periods (P1, P2), the peptide was added to the incubation medium hourly for 2 hours (I3, I4).
This in vitro study was performed in triplicate and a standard radioimmunoassay of growth hormone present in the incubation medium was performed in duplicate. The hormonal activity was calculated as the difference (Δ) of growth hormone (GH) levels between I3, I4 and P2, i.e., (I3 -P2) and (I4 -P2). P values were calculated by Students' t test using six growth hormone values for each value recorded.
The growth hormone radioimmunoassay reagents were distributed by the National Institute of Arthritis and […] (NIAMDD) program. The growth hormone values were calculated in terms of nanograms (ng) of a rat standard with a growth hormone potency of 0.61 units/mg.

[1] = peptide 0.1μg, P <0.001 unless otherwise noted

Structure (SMILES)	In vitro growth hormone release (ΔGH) [1]	In vitro growth hormone release (ΔGH) (peptide 0.3μg, P <0.001)	In vitro growth hormone release (ΔGH) (peptide 1μg, P <0.001)	In vitro growth hormone release (ΔGH) (peptide 10μg, P <0.001)
C[C@H](NC(=O)[C@@H](Cc1c[nH]c2ccccc12)NC(=O)[C@@H](N)Cc1ccc(O)cc1)C(=O)N[C@@H](Cc1c[nH]c2ccccc12)C(=O)N[C@H](Cc1ccccc1)C(N)=O [H2 N--Tyr--D-Trp--Ala--Trp--D-Phe--CONH2, H2 N-Tyr-D-Trp-Ala-Trp-D-Phe-CONH2] (H-Y[dW]AW[dF]-NH2)	3409 ± 455 ngΔGH/ml incubation medium	4540 ± 1200 ngΔGH/ml incubation medium	4611 ± 510 ngΔGH/ml incubation medium	5000 ± 662 ngΔGH/ml incubation medium
NC(=O)[C@@H](Cc1ccccc1)NC(=O)[C@H](Cc1c[nH]c2ccccc12)NC(=O)[C@H](CO)NC(=O)[C@@H](Cc1c[nH]c2ccccc12)NC(=O)[C@@H](N)Cc1ccc(O)cc1 [H2 N--Tyr--D-Trp--Ser--Trp--D-Phe--CONH2, H2 N-Tyr-D-Trp-Ser-Trp-D-Phe-CONH2] (H-Y[dW]SW[dF]-NH2)	353 ± 144 ngΔGH/ml incubation medium		3119 ± 413 ngΔGH/ml incubation medium	3831 ngΔGH/ml incubation medium
